“And” between values parts separate entries of the source, which are not always exact repeats. Equal values may be shown once. Where a name gives a salt, the structure may show the parent alone.
Key:
[1] = test system: lymphocytic leukemia P388; test: Lymphocytic Leukemia P388 Test; assay type: in vivo, mice
Procedure: The animals used are mice all of one sex, weighing a minimum of 17 g. and all within a 3 gram weight range. There are 5 or 6 animals per test group. The tumor transplant is by intraperitoneal injection of 0.1 ml. or 0.5 ml. of dilute ascitic fluid containing 10^6 cells of lymphocytic leukemia P388. The test compounds are administered intraperitoneally on days one, 5 and 9 (relative to tumor inoculation) at various doses. The animals are weighed and survivors are recorded on a regular basis for 30 days. The median survival time and the ratio of survival time for treated (T)/control (C) animals are calculated. […] The results of this test with representative compounds of the present invention appear in Table II below. The criterion for efficacy is T/C×100≥125%.

Enterococcus, SM 77-15 = test: antibacterial activity in vitro, agar-dilution streak-plate technique; assay type: cell-based; details: SM7715, 37° C. for 18 hours, read-out: minimal inhibitory concentration (MIC)
Procedure: (§1) The antibacterial spectrum in terms of the concentration required to inhibit the growth of various typical bacteria was determined in a standard manner by the agar-dilution streak-plate technique. A Steers multiple inocula replicator was used with incubation at 37° C. for 18 hours in Mueller-Ninton agar. The results for 7,12-bis-(2-imidazolin-2-ylhydrazone)benz[a]anthracene-7,12-dicarboxaldehyde dihydrochloride, a typical compound of this invention, are set forth in Table I as the minimal inhibitory concentration (MIC) in micrograms per milliliter.

[2] = test system: Staphylococcus aureus, OSU 75-2; test: as above; assay type: cell-based; details: OSU752, 37° C. for 18 hours, read-out: minimal inhibitory concentration (MIC)
Procedure: as §1

[3] = test system: Staphylococcus aureus, Q 74-11; test: as above; assay type: cell-based; details: Q7411, 37° C. for 18 hours, read-out: minimal inhibitory concentration (MIC)
Procedure: as §1

[4] = test system: Staphylococcus aureus, St. Paul (NYC 78-1); test: as above; assay type: cell-based; details: 37° C. for 18 hours, read-out: minimal inhibitory concentration (MIC)
Procedure: as §1

[5] = test system: melanotic melanoma B16 tumor; test: Melanotic Melanoma B16; assay type: in vivo, C57BC/6 mice
Procedure: The animals used are C57BC/6 mice, all of the same sex, weighing a minimum of 17 g. and all within a 3 g. weight range. There are normally 10 animals per test group. A one-gram portion of melanotic melanoma B16 tumor is homogenized in 10 ml. of cold balanced salt solution and a 0.5 ml. aliquot of the homogenate is implanted intraperitoneally into each of the test mice. The test compounds are administered intraperitoneally on days one through 9 (relative to tumor inoculation) at various doses. The animals are weighed and survivors are recorded on a regular basis for 60 days. The median survival time and the ratio of survival time for treated (T)/control (C) animals are calculated. The positive control compound is 5-fluorouracil given as a 20 mg./kg. injection. The results of this test with a representative compound of the present invention appear in Table III below. The criterion for efficacy is T/C×100≥125%.

[6] = P388, dose 0.78 mg./kg. intraperitoneally on days one, 5 and 9
[7] = P388, dose 1.56 mg./kg. intraperitoneally on days one, 5 and 9
[8] = P388, dose 3.12 mg./kg. intraperitoneally on days one, 5 and 9
[9] = P388, dose 6.25 mg./kg. intraperitoneally on days one, 5 and 9
[10] = P388, dose 12.5 mg./kg. intraperitoneally on days one, 5 and 9
[11] = P388, dose 1.56 mg./kg. intraperitoneally on days one, 5 and 9, dihydrochloride
[12] = P388, dose 3.12 mg./kg. intraperitoneally on days one, 5 and 9, dihydrochloride
[13] = P388, dose 6.25 mg./kg. intraperitoneally on days one, 5 and 9, dihydrochloride
[14] = P388, dose 12.5 mg./kg. intraperitoneally on days one, 5 and 9, dihydrochloride
[15] = P388, dose 25 mg./kg. intraperitoneally on days one, 5 and 9, dihydrochloride
[16] = P388, positive control, dose 40 mg./kg.
[17] = P388, positive control, dose 60 mg./kg.
[18] = B16, positive control, dose 20 mg./kg.
[19] = P388, dose 25 mg./kg. intraperitoneally on days one, 5 and 9
[20] = B16, dose 0.2 mg./kg. intraperitoneally on days one through 9
[21] = B16, dose 0.5 mg./kg. intraperitoneally on days one through 9
[22] = B16, dose 1.5 mg./kg. intraperitoneally on days one through 9
[23] = B16, dose 3 mg./kg. intraperitoneally on days one through 9

SMILES	Median Survival [1, 6] [days]	T/C × 100 (Percent) [1, 6] [%]	Median Survival [1, 7] [days]	T/C × 100 (Percent) [1, 7] [%]	Median Survival [1, 8] [days]	T/C × 100 (Percent) [1, 8] [%]	Median Survival [1, 9] [days]	T/C × 100 (Percent) [1, 9] [%]	Median Survival [1, 10] [days]	T/C × 100 (Percent) [1, 10] [%]	also measured
C(=NNC1=NCCN1)c1c2ccccc2c(C=NNC2=NCCN2)c2cc3ccccc3cc12 [Bis(2-imidazolin-2-ylhydrazone)-5,12-benz[b]anthracene dicarboxaldehyde dihydrochloride]	15.0	130	15.5	135	18.0	157	18.5	161	22.0	191	–
C(=NNC1=NCCN1)C1c2ccccc2C(C=NNC2=NCCN2)c2c1ccc1ccccc21 (stereo not drawn) [Bis(2-imidazolin-2-ylhydrazone) of 7,12-dihydrobenz[a]anthracene-7,12-dicarboxaldehyde dihydrochloride]	13.0	130	–	–	–	–	–	–	–	–	Median Survival [1, 11]: 13.5 days; T/C × 100 (Percent) [1, 11]: 135%; Median Survival [1, 12]: 16.5 days; T/C × 100 (Percent) [1, 12]: 165%; Median Survival [1, 13]: 16.5 days; T/C × 100 (Percent) [1, 13]: 165%; Median Survival [1, 14]: 17.5 days; T/C × 100 (Percent) [1, 14]: 175%; Median Survival [1, 15]: 17 days; T/C × 100 (Percent) [1, 15]: 170%
C(=NNC1=NCCN1)c1c2ccccc2c(C=NNC2=NCCN2)c2c1ccc1ccccc12 [Bis(2-imidazolin-2-ylhydrazone)-7,12-benz[a]anthracene dicarboxaldehyde dihydrochloride]	15.0	150	16.0	160	17.5	175	19.0	190	19.0	190	MIC (Enterococcus, SM 77-15): 8 µg/mL; MIC [2]: 16 µg/mL; MIC [3]: 8 µg/mL; MIC [4]: 8 µg/mL
O=c1[nH]cc(F)c(=O)[nH]1 [5-Fluorouracil, 5-fluorouracil, reference compound]	–	–	–	–	–	–	–	–	–	–	Median Survival [1, 16]: 18 days and 18.5 days; T/C × 100 (Percent) [1, 16]: 164% and 154%; Median Survival [1, 17]: 12.5 days and 20.0 days; T/C × 100 (Percent) [1, 17]: 109% and 200%; Median Survival [5, 18]: 25.5 days; T/C × 100 (Percent) [5, 18]: 155%
C(=NNC1=NCCN1)C1c2ccccc2C(C=NNC2=NCCN2)c2c1ccc1ccccc21 (stereo not drawn) [Bis(2-imidazolin-2-ylhydrazone)-7,12-dihydro-benz[a]anthracene dicarboxaldehyde]	–	–	14.5	132	14	127	16	145	18	164	Median Survival [1, 19]: 20 days; T/C × 100 (Percent) [1, 19]: 182%
C(=NNC1=NCCN1)c1c2ccccc2c(C=NNC2=NCCN2)c2c1ccc1ccccc12 [Bis(2-imidazolin-2-ylhydrazone) of benz[a]anthracene-7,12-dicarboxaldehyde]	–	–	–	–	–	–	–	–	–	–	Median Survival [5, 20]: 22.0 days; T/C × 100 (Percent) [5, 20]: 133%; Median Survival [5, 21]: 25.0 days; T/C × 100 (Percent) [5, 21]: 152%; Median Survival [5, 22]: 30.5 days; T/C × 100 (Percent) [5, 22]: 185%; Median Survival [5, 23]: 31.0 days; T/C × 100 (Percent) [5, 23]: 188%
